Source: PubChem BioAssay (NCI)
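Test compounds were applied to cells in 96-well plates for 48 hours at 5 doses. The concentration for full growth arrest is given as TGI.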

How the values were obtained:
Experiment in all cases: NCI tumour cell line growth inhibition, 48 h
[1] = system: UO-31 renal
[2] = system: SF-295 CNS
[3] = system: HCT-15 colon
[4] = system: MDA-MB-231 breast
[5] = system: COLO 205 colon
[6] = system: ACHN renal
[7] = system: MDA-MB-435
[8] = system: SNB-19 CNS
[9] = system: HT29 colon
[10] = system: PC-3 prostate
[11] = system: OVCAR-4 ovarian
[12] = system: RXF 393 renal
[13] = system: NCI-H522 lung
[14] = system: MALME-3M melanoma
[15] = system: SW-620 colon
[16] = system: HCT-116 colon
[17] = system: SF-539 CNS
[18] = system: DU-145 prostate
[19] = system: SNB-75 CNS
[20] = system: HOP-92 NSCLC
[21] = system: SN12C renal
[22] = system: EKVX NSCLC
[23] = system: OVCAR-8 ovarian
[24] = system: NCI-H23 lung
[25] = system: HCC-2998 colon
[26] = system: SF-268 CNS
[27] = system: U251 CNS
[28] = system: CCRF-CEM leukemia
[29] = system: CAKI-1 renal
[30] = system: HS 578T breast
[31] = system: NCI/ADR-RES ovarian
[32] = system: SR leukemia
[33] = system: MOLT-4 leukemia
[34] = system: NCI-H226 lung
[35] = system: HL-60(TB) leukemia
[36] = system: TK-10 renal
[37] = system: A549 NSCLC
[38] = system: K-562 leukemia
[39] = system: BT-549 breast
[40] = system: SK-MEL-2 melanoma
[41] = system: RPMI-8226 leukemia
[42] = system: NCI-H460 lung
[43] = system: SK-MEL-5 melanoma
[44] = system: MCF7 breast
[45] = system: OVCAR-5 ovarian
[46] = system: IGROV1 ovarian
[47] = system: UACC-257 melanoma
[48] = system: UACC-62 melanoma
[49] = system: SK-MEL-28 melanoma
[50] = system: SK-OV-3 ovarian
[51] = system: OVCAR-3 ovarian
[52] = system: LOX IMVI melanoma
[53] = system: MDA-N
[54] = system: HOP-62 NSCLC
[55] = system: A498 renal
[56] = system: 786-0 renal
[57] = system: M14 melanoma
[58] = system: KM12 colon
[59] = system: T-47D breast

Measured: TGI

Cc1cc2c(cc1C)[n+](=O)c(C#N)c(Cl)n2[O-]
70.9 µM: [27]
55.7 µM: [54]
63.8 µM: [4]
23.9 µM: [6]
43.4 µM: [18]
53.2 µM: [23]
26.4 µM: [12]
42.5 µM: [49]
25.8 µM: [45]
45.3 µM: [28]
26.3 µM: [13]
27.5 µM: [44]
33.3 µM: [46]
28.2 µM: [17]
32 µM: [16]
41.6 µM: [15] | [53]
92.5 µM: [40]
21.7 µM: [5]
38.1 µM: [39]
29.6 µM: [48]
84.3 µM: [35]
80.8 µM: [37]
25.1 µM: [24]
19.7 µM: [9] | [29]
27.9 µM: [36]
27 µM: [47]
29 µM: [43]
31.2 µM: [11]
28.5 µM: [22]
24.2 µM: [42]
55.6 µM: [41]
70.5 µM: [50]
32.2 µM: [1]
28.3 µM: [21]
20.6 µM: [51]
39.5 µM: [55]
16.7 µM: [3]
30.3 µM: [20]
45.2 µM: [19]
30 µM: [14]
39.2 µM: [52]
48.5 µM: [33]
23.7 µM: [25]
> 100 µM: [2] | [7] | [8] | [10] | [26] | [30] | [32] | [34] | [38]
42.3 µM: [31]

NC(N)=NC(P(=O)(O)O)P(=O)(O)O
> 100 µM: [1] | [2] | [3] | [4] | [56] | [5] | [6] | [8] | [10] | [12] | [57] | [13] | [14] | [16] | [17] | [18] | [22] | [24] | [25] | [26] | [29] | [30] | [31] | [58] | [34] | [36] | [37] | [39] | [42] | [43] | [44] | [45] | [46] | [47] | [48] | [50] | [51] | [52] | [53] | [54]

C=CCC(CC=O)(C(=O)OCC)C(=O)OCC
> 100 µM: [1] | [2] | [3] | [4] | [56] | [5] | [6] | [7] | [8] | [9] | [10] | [11] | [12] | [57] | [13] | [14] | [15] | [16] | [17] | [18] | [19] | [20] | [21] | [22] | [23] | [24] | [26] | [27] | [28] | [29] | [30] | [31] | [32] | [58] | [33] | [34] | [35] | [36] | [37] | [38] | [40] | [41] | [42] | [43] | [44] | [45] | [46] | [47] | [48] | [49] | [50] | [51] | [52] | [53] | [54] | [55]

CC(=O)OC/C=C/Cn1ncc(=O)[nH]c1=O
> 100 µM: [1] | [3] | [4] | [5] | [6] | [7] | [8] | [9] | [10] | [12] | [59] | [57] | [13] | [14] | [15] | [17] | [18] | [19] | [20] | [21] | [22] | [23] | [25] | [26] | [27] | [29] | [30] | [31] | [58] | [33] | [34] | [35] | [37] | [38] | [40] | [41] | [42] | [43] | [44] | [45] | [46] | [49] | [51] | [52] | [53] | [54] | [55]
